Laboratory results as given in patent US20210267731A1, “COMPOSITION FOR TREATING AND PREVENTING GINGIVOPERIODONTITIS OR PERI-IMPLANTITIS, AND INTERDENTAL BRUSH COATED WITH SAME” (NIBEC CO., LTD., priority 2018, published 2021).
Ends that are not written are not given here.

Assays:
Prevotella intermedia = test: Antimicrobial experiment, liquid dilution method, colony count; type: cell-based
Description: In order to determine the effect of the composition containing the antimicrobial peptide, an antimicrobial experiment was conducted according to the liquid dilution method. Prevotella intermedia, which is a bacterium causative of periodontal disease, was cultured in Tryptic soy broth. The above strain was cultured until the absorbance at 620 nm reached 1, and then the cells were collected and used in the experiment. The cells were diluted with PBS, bacteria were plated at 10^5-10^7/mL on a tryptic soy agar (TSA) plate, and incubated at 37° C. for 24 hours. In order to measure the antimicrobial activity of the peptides using a liquid dilution method, 1 ml of distilled water was added to a microtube, 10 µl of diluted bacterial solution was added thereto and 50 μl of the product was plated on a plate medium which was used as a control group.
After treatment with 50 μg/ml and 100 μg/ml of the peptide of SEQ ID NO: […] and 100 μg/ml of the peptide of SEQ ID NO: 2 at 37° C. for 1 hour, 50 μl of each of the product was plated and the number of colonies that formed was counted. In addition, the antimicrobial activity of the composition of Example 1, a composition containing the composition of Example 1 and the peptide of SEQ ID NO: 1, and a composition containing the composition of Example 1 and the peptide of SEQ ID NO: 2 was measured in the same manner as above.

[1] = Test of lipopolysaccharide removal effect of nonionic surfactants; conditions: compared with other nonionic surfactants (polyoxyethylene, Tween series, span series)
Text: Octyl phenol ethoxylate (C14H22O (C2H4O)n) is a nonionic surfactant, has a hydrophilic polyethylene oxide group and a hydrophobic 4-(1,1,3,3-tetramethylbutyl)-phenyl group, and is widely used as a detergent in the biochemical field. In immunostaining, octyl phenol ethoxylate permeabilizes the cell membrane at a concentration of 0.1 to 0.5%, and permeabilizes the cell wall of bacteria at a concentration of 1%. In the present invention, octyl phenol ethoxylate has an effect of removing lipopolysaccharide (LPS). Other nonionic surfactants widely used in this technical field include polyoxyethylene, Tween series, span series and the like.

Row | Substance | antimicrobial activity (Prevotella intermedia; among peptides of SEQ ID NO: 1 to SEQ ID NO: 4) | antimicrobial activity of peptide (colonies formed) (Prevotella intermedia; peptide at 100 μg/ml, 37° C., 1 hour, FIG. 6) | lipopolysaccharide removal effect [1]
1 | GKSST RGRKS CRRKK-NH2 (GKSSTRGRKSCRRKK-NH2) [peptide of SEQ ID NO: 2, antimicrobial peptide] | best antimicrobial activity | the highest | 
2 | octyl phenol ethoxylate |  |  | greatest lipopolysaccharide removal effect
